From patent publication US11517575B2, “Use of minaprine to reduce tumor growth” (Institut Gustave-Roussy, priority 2019, dated 2022)

Tested on: CT26 cells
Test: Anti-tumor vaccination assay, CT26 cells in BALB/c mice
Format: in vivo, mouse
Details: for frequency of mice showing a protective response: 8 Gy + 10 μM compound 24 h
Method: FIG. 5. Identification of cannibalism modulators as immunogenic cell death inducers. MCA205 (A) or CT26 (E, I, M, Q) cells were treated with the indicated drugs. After 24 h of coculture with the indicated treatment, cell death was monitored by staining DiOC6(3) and PI, and the percentage of dying (DiOC6(3)^low PI^−, open bars) and dead (DiOC6(3)^low PI^+, closed bars) cells was determined by cytofluorometry. (B-D) MCA205 cells or (F-H, J-L, N-P, R-T) CT26 cells cocultured after x irradiation with the indicated compounds were inoculated subcutaneously into the right flank of […] or BALB/c mice, respectively. Seven days later, the mice were rechallenged with live cells injected into the opposite flank, and tumor growth was monitored (five mice per group).
FIG. 6. Tumor vaccination experiments. CT26 cells were treated for 24 hours with 10 μM VP331 (A, F, K), 10 μM Minaprine (B, G, L), 10 μM Lopa87 (C, H, M), 10 μM SG6163F (D, I, N), 10 μM Azaguanine-8 (8-aza) (E, J, O) alone or combined with 8 Gy ionizing radiation and inoculated (s.c.) into immunocompetent BALB/c mice, which were rechallenged at the opposite flank 7 days later with the same cancer cells. The percentage of tumor-free mice was evaluated three times a week for the following 38 days. Percentage of total tumor free mice (A-E), tumor free-mice at the first injection site (F to J, P) or at the second injection site (K to O, Q) are shown. (*P<0.05, **P<0.01, ***P<0.001, two-way ANOVA).
The combination of IRCCE with IR induces efficient antitumor immunity. Considering that immunogenic cell death (ICD) inducers were identified (such as Digoxin, Digitoxin, Lanatoside C or Doxorubicin hydrochloride)^3, 4, 48-51) as IRCCE, the ability of these compounds to induce an antitumor immunity after radiotherapy was evaluated. First, a preclinical approaches was developed to study the immunological effects of IRCCE on two mouse models of carcinoma (colon CT26 carcinoma and fibrosarcoma MCA205). Initially, the ability of the combination of IRCCE+IR to trigger a specific anti-tumor immune response was appreciated using immunocompetent mice through anti-tumor vaccination assays. According to previously published studies^52, the injection of cancer cells succumbing to an immunogenic cell death (ICD) into immunocompetent mice must elicit a protective immune response that is specific for tumor antigens. Thus, 3×10^5 MCA205 cells were first treated with 10 μM of SG6163F for 24 hours. Then, treated cells were inoculated subcutaneously in 200 μl PBS into the lower flank of 8-week-old female C57BL/6 mice. One week later, 3×10^4 untreated control cells were inoculated into the contralateral flank of mice. Tumors were evaluated weekly using a common caliper. Animals bearing tumors that exceeded 20-25% body mass were euthanatized. […] Then, 3×10^6 CT26 cells were irradiated with 8 Gy in presence of 10 μM of SG6163F (FIGS. 5E and 5F), VP331 (FIGS. 5I and 5J), Minaprine dihydrochloride (FIGS. 5M and 5N) or LOPA87 (FIGS. 5Q and 5R) for 24 hours. Then, cells were inoculated as previously described subcutaneously in […] into the lower flank of 8-week-old female BALB/c mice. One week later, 5×10^5 untreated control cells were inoculated into the contralateral flank of mice and tumors were evaluated weekly using a common caliper. As previously mentioned, animals bearing tumors that exceeded 20-25% body mass were euthanatized. The percentage of dying cells in each condition was evaluated by determining with DiOC(6)3/IP staining (FIGS. 5E, 5I, 5M and 5Q). Finally, the ability of these compounds to repress the growth of cancer cells that have been injected 7 days after injection of irradiated and treated cancer cells was appreciated.
A second anti-tumor vaccination assay was done on CT26 mouse models of carcinoma as previously described. […]

Cc1cc(-c2ccccc2)nnc1NCCN1CCOCC1.Cl.Cl [Minaprine dihydrochloride]
frequency of mice showing a protective response (first assay: CT26 cells, rechallenge one week later): significant increase in the frequency of mice showing a protective response | protective response after injection of cancer cells (second assay: CT26 cells treated with 10 μM compound alone (no IR)): induce an increase of protective response | frequency of mice showing a protective response (second assay: CT26 cells, rechallenge 7 days later): Significant increases in the frequency of mice showing a protective response
